Values of other authors, collected in patent US11318113B2, “Compounds for the treatment of diseases linked to mitochondrial reactive oxygen species (ROS) production” (OP2 DRUGS, priority 2015, dated 2022).

Tested on: complex I
Details: Orr et al., 2013; cited from earlier work

O=[N+]([O-])c1ccc(Oc2ccc(S(=O)(=O)NC3CCCCC3)cc2)cc1 [N-cyclohexyl-4-(4-nitrophenoxy) benzenesulfonamide]
activity of complex I as a component of the respiratory chain and oxidative phosphorylation: does not modify
